Earlier results in US20240000793A1, “OPHTHALMIC COMPOSITION CONTAINING LEVOFLOXACIN AND KETOROLAC, METHOD FOR THE PREPARATION AND USE THEREOF” (NTC S.R.L., priority 2020, published 2024).

Assays:
[1] = recent studies
[2] = versus pH

Row | SMILES | Time in the eye at levels above the minimum inhibitory concentration (MIC) [1] | Solubility profile [2]
1 | C[C@H]1COc2c(N3CCN(C)CC3)c(F)cc3c(=O)c(C(=O)O)cn1c23 [Levofloxacin] | more than six hours | 
2 | O=C(c1ccccc1)c1ccc2n1CCC2C(=O)O (centres unmarked) [Ketorolac tromethamine] |  | pH dependent trend, significantly increasing at pH value>6.0
